Like-named read-outs stand apart in the source and are kept apart here.
Tests used:
[1] = assay type: in vitro ADME; conditions: 2 μM, pH 7.4
[2] = assay type: in vitro ADME; conditions: 2 μM, pH 7.4; remark: listed apart in the source
[3] = assay type: in vitro ADME; conditions: 2 μM, pH 7.4; remark: listed apart in the source
[4] = assay type: in vitro ADME; conditions: 2 μM, pH 7.4; remark: listed apart in the source
[5] = cited from earlier work
[6] = cited from earlier work; remark: listed apart in the source
SARS-CoV-2-Nluc = experiment: in vitro; conditions: human
SARS-CoV-2 WA1 = experiment: SARS-CoV-2 nucleoprotein ELISA in A549-hACE2-TMPRSS2 cells, WA1; assay type: cell-based
[7] = read-out: mean Cmax of plasma 1; AGM, 1 iv 10 mg/kg day 1 dose; cited from earlier work
SARS-CoV-2 [8] = conditions: cited from earlier work
[9] = assay type: in vitro ADME; conditions: 2 μM, pH 7.4; remark: listed apart in the source
SARS-CoV-2 [10] = conditions: read-out: in vitro SARS-CoV-2 antiviral EC50; Vero E6 cells and primary lung cultures; cited from earlier work
adenosine deaminase = target: T1, adenosine deaminase (Homo sapiens, UniProt P00813); experiment: Metabolism by adenosine deaminase in vitro
T1 sequence (P00813 1-363): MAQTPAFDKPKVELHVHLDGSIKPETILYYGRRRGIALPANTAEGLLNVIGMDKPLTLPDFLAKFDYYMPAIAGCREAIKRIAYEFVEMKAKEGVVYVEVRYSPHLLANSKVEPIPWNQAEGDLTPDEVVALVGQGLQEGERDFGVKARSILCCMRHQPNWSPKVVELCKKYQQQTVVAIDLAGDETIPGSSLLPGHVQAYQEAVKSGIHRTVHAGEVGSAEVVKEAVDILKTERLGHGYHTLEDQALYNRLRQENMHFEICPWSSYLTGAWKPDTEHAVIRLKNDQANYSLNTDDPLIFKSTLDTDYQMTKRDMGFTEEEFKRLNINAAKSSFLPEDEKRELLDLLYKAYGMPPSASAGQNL

in vitro [11] = conditions: human, microsomes
in vivo = conditions: nonhuman primates, iv
[12] = Thermodynamic solubility in pH 7 buffered solution; assay type: physicochemical
[13] = assay type: in vitro ADME; conditions: 2 μM, pH 7.4; remark: listed apart in the source
SARS-CoV-2 [14] = experiment: AGM SARS-CoV-2 antiviral efficacy study
[15] = test system: three human carboxyesterases; experiment: in vitro; assay type: in vitro ADME; conditions: pH 7.4
[16] = assay type: in vitro ADME; conditions: 2 μM, pH 7.4; remark: listed apart in the source
[17] = assay type: physicochemical; conditions: 24 h, 50 μg/mL
[18] = in vivo
[19] = assay type: in vitro ADME; conditions: 2 μM, pH 7.4; remark: listed apart in the source
in vitro [20] = assay type: in vitro ADME; conditions: human, Caco-2, Caco-2 efflux ratio
Caco-2 cells = experiment: in vitro; assay type: in vitro ADME; conditions: Caco-2
[21] = In vivo pharmacokinetics, rat; conditions: po, 6 mg/kg
[22] = Severe acute respiratory syndrome coronavirus 2, A549-hACE2-TMPRSS2, read-out: EC50 ± SD, WA1 (n = 2), reference run above Omicron BA.2.12.1, BA.4, BA.5

## CC(=O)OC[C@H]1O[C@@](C#N)(c2ccc3c(N)ncnn23)[C@H](OC(C)=O)[C@@H]1OC(C)=O [compound 7]
[1]
  liver S9 stability, rat: <2/<2/<2/<2 min
[2]
  liver S9 stability, dog: <2/<2/<2/<2 min
[3]
  liver S9 stability, cynomolgus monkey: <2/<2/<2/<2 min
[4]
  liver S9 stability, human: <2/<2/<2/<2 min

## CCC(CC)COC(=O)[C@H](C)N[P@](=O)(OC[C@H]1O[C@@](C#N)(c2ccc3c(N)ncnn23)[C@H](O)[C@@H]1O)Oc1ccccc1 [compound 1, Remdesivir]
[5]; 100 mg maintenance dose in humans
  AUC0–24h of 1: 2.6 µM·h
[6]; NHPs
  half-life: 24 to 48 min
[6]; nonhuman primates
  oral bioavailability of the intact prodrug: < 1%
SARS-CoV-2-Nluc
  selectivity ratio: ≥ 300
SARS-CoV-2 WA1; [22]
  EC50: 160 ± 0.6 nM
SARS-CoV-2 WA1; WA1 (n = 2), reference run above Omicron BA.2
  fold change ± SD from WA1: 1.0
SARS-CoV-2 WA1; WA1 (n = 2), reference run above Omicron BA.2.12.1, BA.4, BA.5
  fold change ± SD from WA1: 1.0
SARS-CoV-2 WA1; WA1 (n = 2), reference run above Omicron BA.2.75
  fold change ± SD from WA1: 1.0
SARS-CoV-2 WA1; WA1 (n = 2), reference run above Omicron BA.4.6, BF.5
  fold change ± SD from WA1: 1.0
SARS-CoV-2 WA1; WA1 (n = 2), reference run above Omicron XBB, BQ.1.1
  fold change ± SD from WA1: 1.0
SARS-CoV-2 WA1; WA1 (n = 3), reference run above Delta
  fold change ± SD from WA1: 1.0
SARS-CoV-2 WA1; WA1 (n = 7), reference run above Omicron BA.1
  fold change ± SD from WA1: 1.0
[7]
  Cmax: 12.6 µM
SARS-CoV-2 [8]; high-risk nonhospitalized patients (PINETREE), 3-day iv
  reduction in hospitalizations: 87%
SARS-CoV-2 [8]; outpatient high-risk patients, 5-day oral Paxlovid, 3-day iv 1
  effectiveness in reducing hospitalization: ≥ 87%
SARS-CoV-2 [8]; patients hospitalized with COVID-19 (ACTT-1), iv
  shortening of hospitalization duration: 5 days

## CC(=O)OC[C@H]1O[C@@](C#N)(c2ccc3c(N)ncnn23)[C@H](O)[C@@H]1O [compound 5, ((2R,3S,4R,5R)-5-(4-Aminopyrrolo[2,1-f][1,2,4]triazin-7-yl)-5-cyano-3,4-dihydroxytetrahydrofuran-2-yl)methyl Acetate]
[9]
  GI S9 stability, rat: < 2 min

## N#C[C@@]1(c2ccc3c(N)ncnn23)O[C@H](CO)[C@@H](O)[C@H]1O [compound 2, GS-441524]
SARS-CoV-2 [10]
  EC50: 1000 to 2000 nM
Adenosine deaminase
  metabolism by adenosine deaminase: weak substrates or inhibitors
SARS-CoV-2 WA1; [22]
  EC50: 7360 ± 3460 nM
In vitro [11]
  half-life: > 480 min
In vivo
  half-life: 156 to 162 min

## CC(C)C(=O)OC[C@H]1O[C@@](C#N)(c2ccc3c(N)ncnn23)[C@H](O)[C@@H]1O [compound 3, ((2R,3S,4R,5R)-5-(4-Aminopyrrolo[2,1-f][1,2,4]triazin-7-yl)-5-cyano-3,4-dihydroxytetrahydrofuran-2-yl)methyl Isobutyrate]
[12]
  fold improved pH 7 solubility over 2: > 10 fold
  fold improved pH 7 solubility over 6: > 100 fold
[13]
  GI S9 stability, human: <2/<2/<2/<2 min
SARS-CoV-2 [14]; 1, 2, and 6 dpi, both dose groups
  SARS-CoV-2 infectious and RNA loads in throat swabs: significant reductions
SARS-CoV-2 [14]; 60 or 120 mg/kg oral once daily, throughout infection
  infectious viral loads in the BALF: statistically significant decreases
SARS-CoV-2 [14]; 60 or 120 mg/kg, exception 60 mg/kg at day 1 post-infection
  genomic RNA loads in BALF: significantly reduced at nearly all study time points assessed
SARS-CoV-2 [14]; after day 4 post-infection, either dose group
  infectious virus in throat and nasal swabs: no detectable infectious virus
SARS-CoV-2 [14]; study day 6, both doses
  viral RNA levels in terminal respiratory tissues: significant reductions of viral RNA levels in 5 out of the 6 respiratory tissues evaluated
Adenosine deaminase
  metabolism by adenosine deaminase: weak substrates or inhibitors
[15]
  half-life at 2 μM: < 4.3 min
SARS-CoV-2 WA1; [22]
  EC50: 1570 ± 210 nM
SARS-CoV-2 WA1; Severe acute respiratory syndrome coronavirus 2, A549-hACE2-TMPRSS2, read-out: EC50 ± SD, WA1 (n = 2), reference run above Omicron BA.4.6, BF.5
  EC50: 3960 ± 290 nM
[16]
  GI S9 stability, cynomolgus monkey: <2/<2/<2/<2 min
[17]
  solution stability, pH 2: ≥94%
  solution stability, pH 7: ≥96%
[18]
  simulated human Cave: ≈ 4.6 μM
[9]
  GI S9 stability, rat: <2/<2/<2/<2 min
[19]
  GI S9 stability, dog: <2/<2/<2/<2 min
In vitro [20]
  efflux ratio at 2 h: < 3
Caco-2 cells
  fold improved forward permeability over parent 2: ~ 10 fold
[21]
  AUC0–24 of 3: BLQ

## CC(C)C(=O)OC[C@H]1O[C@@](C#N)(c2ccc3c(N)ncnn23)[C@H](OC(=O)C(C)C)[C@@H]1OC(=O)C(C)C [compound 6]
[13]
  GI S9 stability, human: <2/<2/<2/<2 min
[16]
  GI S9 stability, cynomolgus monkey: <2/<2/<2/<2 min
[17]
  solution stability, pH 2: ≥96%
  solution stability, pH 7: ≥98%
[9]
  GI S9 stability, rat: <2/<2/<2/<2 min
[19]
  GI S9 stability, dog: <2/<2/<2/<2 min

## [N-]=[N+]=N[C@]1(CO)O[C@@H](n2ccc(N)nc2=O)[C@H](O)[C@@H]1O [R1479]
[5]; human, in vivo, po
  estimated oral bioavailability: 6–18%
